# Reference: patent US20060228412A1, “(-)-Hydroxycitric acid for delaying gastric emptying” (priority 2003, published 2006)
# Legend:
# [3H]-5-HT uptake = isolated rat brain cortical slices; cited from earlier work
# [1] = at the end of 80 days; cited from earlier work
# [2] = mice on a 10% sucrose diet; cited from earlier work
# [3] = cited from earlier work
# [4] = Capsaicin-HCA interaction satiety test; format: in vivo, human; conditions: 5 individuals, approximately 2 grams in water about an hour before a meal; before red pepper sauce
# Text: The meal itself began with a soup course. […] At this point, bottles of red pepper sauce were supplied and the sauce was applied liberally. […] As is true of Example 3, this provides indirect evidence that HCA acts upon a CCK-related mechanism in inducing satiety.
# [5] = Multi-week pilot open clinical weight loss trial with extremely obese patients; format: in vivo, human
# Text: In the present studies, data on human usage emerged from a multi-week pilot open clinical weight loss trial with extremely obese patients which was undertaken to gauge the effects of a pouch delivery form of a potassium salt of HCA under the normal circumstances faced in clinical practice with this patient population. Sixteen patients were enrolled, three of whom were diabetics on medications and several others who were suspected of suffering from insulin resistance. The patients ingested 3-4 grams of HCA (in the form of the potassium salt) per day in two divided doses. Aside from being informed that they must eat a carbohydrate-containing meal within one hour of taking the HCA and that they should avoid eating late in the day, they were not instructed to follow any special diet or exercise plan outside their normal habits and no caloric restriction was imposed. This particular form of potassium HCA delivery typically was mixed into water or juice and consumed at mid-morning and mid-afternoon. The delivery was a water-soluble immediate release form. It was a pre-commercial preparation and nearly all of the patients complained regarding the inconvenience and poor taste of the product, albeit there were no other issues of tolerability.
# A number of patients continued on the program for 6 weeks. However, most patient data was good for only 3 weeks because two of the diagnosed diabetics experienced severe hypoglycemic reactions. […] Two patients subsequently were placed on phentermine. […] The average weight loss over the 3 week period for these 14 patients was approximately 3.1 pounds per person per week. […] At therapeutically effective dosages, HCA probably should be used with diabetic populations only under a physician's care.
# [6] = Blood glucose after HCA meal replacement releasing only in the small intestine; format: in vivo, human
# Text: In Example 1, the HCA was delivered in an immediate-release preparation. Our unexpected findings with regard to blood sugar led to the hypothesis that a relatively large dose of HCA might affect blood sugar levels in an individual whose blood sugar is in the low normal range. A dose of 1.5 grams HCA derived from potassium HCA and delivered in a special coated form designed to bypass interaction with stomach acids and to release only in the higher pH of the small intestine was used. A potassium HCA salt granulate was prepared according to Example 1 found in U.S. Pat. No. 6,447,807 and delivered via a dry powdered meal replacement designed to be mixed with liquid to provide 1.5 grams of HCA per 350 calories plain (mixed with water) or approximately 500 calories with milk. […] The subject ate a 500 calorie breakfast consisting the experimental HCA meal replacement. Two hours after this meal, subject's blood glucose level had dropped to 77 mg/dL. […] This finding seemed paradoxical in that the outstanding metabolic effect, which might be thought to indicate blood levels of the drug, was not matched by even a normal level of feelings of fullness. This implied that at least part of the satiation induced by HCA comes about prior to entry of the compound into the blood. […]
# [7] = Immediacy of HCA-induced satiety, lemonade-like drinks prior to a meal; format: in vivo, human; conditions: 5 individuals, approximately 2 grams in sweetened lemonade-like drinks, 16-24 ounces, about 200 calories
# Experimental: To test this theory, and the palatability of an HCA salt when mixed with various flavors, a study was conducted in which 5 individuals consumed approximately 2 grams potassium HCA mixed in sweetened lemonade-like drinks prior to a meal. Consumption of the drinks took place over the course of approximately one half hour and involved 16-24 ounces of fluid, but only about 200 calories.
SMILES,[3H]-5-HT uptake ([3H]-5-HT uptake),Net reduction in food intake compared with controls [1] [%],Reduction in weight gain [1] [%],Leptin/white adipose tissue ratio compared with control [2],Serum insulin compared with control [2],Serum leptin compared with control [2],"Reduction in food consumption ([3]; experimental animals fed a high-sugar diet, single large oral dose or two divided oral doses) [%]","Minimum effective dose, once per day ([3]; oral, once per day) [mmol/kg]","Minimum effective dose, twice per day ([3]; oral, twice per day) [mmol/kg]",Feeling of fullness [4],"Average weight loss ([5]; 3 week period, 14 patients, 3-4 grams HCA per day in two divided doses, immediate release pouch form)",Blood pressure ([5]; eight patients with hypertension),"Effect on blood sugar in diabetics ([5]; immediate release format, two diagnosed diabetics had severe hypoglycemic reactions)",Weight loss of one patient ([5]; over 10 weeks) [pounds],Appetite suppression ([5]; several patients),"Anorectic action / feelings of fullness ([6]; delivery to the small intestine, by-passing the stomach)","Blood glucose level ([6]; two hours after 500 calorie meal with 1.5 grams HCA, coated form released in small intestine, fasting level before 85 mg/dL, one subject) [mg/dL]",Satiety [7]
"O=C(O)CC(O)(C(=O)O)C(O)C(=O)O (single isomer, unassigned; (-)) [HCA, (−)-hydroxycitric acid]",inhibit,4,78,lower,lower,lower,≥ 10,2.63,0.33,,,,,,,,,
O=C([O-])CC(O)(C(=O)[O-])C(O)C(=O)[O-].[K+].[K+].[K+] (stereo not drawn) [potassium HCA],,,,,,,,,,felt full very soon,approximately 3.1 pounds per person per week,normalize blood pressure,strong hypoglycemic effect,32,good appetite suppression,blunt the anorectic actions,77,satiated soon after the meal began
